Measured values taken from patent US20140378416A1, “SILYL-CONTAINING HETEROCYCLIC COMPOUNDS AND METHODS OF USE THEREOF FOR THE TREATMENT OF VIRAL DISEASES” (priority 2011, published 2014).

Key:
HCV replicon 1b = assay: Cell-based HCV replicon assay (TaqMan), genotype 1b replicon; settings: Hepatitis C virus, 72 h, HCV 1b replicon cells, replicon RNA by TaqMan on day 3; EC90 = concentration for ΔCT=3.2 over baseline
Experimental: (§1) Measurement of inhibition by compounds of the present invention was performed using the HCV replicon system. Several different replicons encoding different HCV genotypes or mutations were used. In addition, potency measurements were made using different formats of the replicon assay, including different ways of measurements and different plating formats. See Jan M. Vrolijk et al., A replicons-based bioassay for the measurement of interferons in patients with chronic hepatitis C, 110 J. VIROLOGICAL METHODS 201 (2003); Steven S. Carroll et al., Inhibition of Hepatitis C Virus RNA Replication by 2′-Modified Nucleoside Analogs, 278(14) J. BIOLOGICAL CHEMISTRY 11979 (2003). However, the underlying principles are common to all of these determinations, and are outlined below.
(§2) Compounds of the present invention were assayed for cell-based anti-HCV activity using the following protocol. Replicon cells were seeded at 5000 cells/well in 96-well collagen I-coated Nunc plates in the presence of the test compound. Various concentrations of test compound, typically in 10 serial 2-fold dilutions, were added to the assay mixture, with the starting concentration ranging from 250 μM to 1 μM. The final concentration of DMSO was 0.5%, fetal bovine serum was 5%, in the assay media. Cells were harvested on day 3 by the addition of 1× cell lysis buffer (Ambion cat #8721). The replicon RNA level was measured using real time PCR (TaqMan® assay). The amplicon was located in 5B. The PCR primers were: 5B.2F, ATGGACAGGCGCCCTGA (SEQ. ID NO. 1); 5B.2R, […] (SEQ. ID NO. 2); the probe sequence was FAM-labeled CACGCCATGCGCTGCGG (SEQ. ID NO. 3). GAPDH RNA was used as endogenous control and was amplified in the same reaction as NS5B (multiplex PCR) using primers and VIC-labeled probe recommended by the manufacturer (PE Applied Biosystem). The real-time […] reactions were run on ABI PRISM 7900HT Sequence Detection System using the following program: 48° C. for 30 minutes, 95° C. for 10 minutes, 40 cycles of 95° C. for 15 sec, 60° C. for 1 minute. The ACT values (CT5B-CTGAPDH) were plotted against the concentration of test compound and fitted to the sigmoid dose-response model using XLfit4 (MDL). EC50 was defined as the concentration of inhibitor necessary to achieve ΔCT=1 over the projected baseline; EC90 the concentration necessary to achieve ΔCT=3.2 over the baseline. Alternatively, to quantitate the absolute amount of replicon RNA, a standard curve was established by including serially diluted T7 transcripts of replicon RNA in the Taqman assay. All TaqMan® reagents were from PE Applied Biosystems. Such an assay procedure was described in detail in e.g. Malcolm et al., Antimicrobial Agents and Chemotherapy 50: 1013-1020 (2006).
(§3) HCV replicon EC50 assay data for various replicons and mutants was calculated for selected compounds of the present invention using this method and is provided in the tables above herein.

HCV replicon 1a Y93H = assay: Cell-based HCV replicon assay (TaqMan), genotype 1a Y93H mutant replicon; settings: Hepatitis C virus, 72 h, read-out: 1a Y93H EC90, HCV 1a Y93H mutant replicon cells, replicon RNA by TaqMan on day 3; EC90 = concentration for ΔCT=3.2 over baseline
Experimental: as §1, §2, §3

HCV replicon 2b = assay: Cell-based HCV replicon assay (TaqMan), genotype 2b replicon; settings: Hepatitis C virus, 72 h, read-out: 2b EC90, HCV 2b replicon cells, replicon RNA by TaqMan on day 3; EC90 = concentration for ΔCT=3.2 over baseline
Experimental: as §1, §2, §3

HCV replicon 1a = assay: Cell-based HCV replicon assay (TaqMan), genotype 1a replicon; settings: Hepatitis C virus, 72 h, HCV 1a replicon cells, replicon RNA by TaqMan on day 3; EC90 = concentration for ΔCT=3.2 over baseline
Experimental: as §1, §2, §3

SMILES | EC90 (HCV replicon 1b) [nM] | EC90 (HCV replicon 1a Y93H) [nM] | EC90 (HCV replicon 2b) [nM] | EC90 (HCV replicon 1a) [nM]
CC[C@@H](O)[C@H](NC(=O)OC)C(=O)N1CCC[C@H]1c1ncc(-c2ccc(-c3ccc(-c4cnc([C@@H]5C[Si](C)(C)CN5C(=O)[C@@H](NC(=O)OC)[C@H](O)CC)[nH]4)cc3)cc2)[nH]1 [Compound 38] | 0.21 | > 1000 | > 1000 | –
COC(=O)N[C@@H](CC1CC1)C(=O)N1CCC[C@H]1c1ncc(-c2ccc(-c3ccc(-c4cnc([C@@H]5C[Si](C)(C)CN5C(=O)[C@H](CC5CC5)NC(=O)OC)[nH]4)cc3)cc2)[nH]1 [Compound 37] | 0.03 | 425 | 888 | –
COC(=O)N[C@H](C(=O)N1CCC[C@H]1c1ncc(-c2ccc(-c3ccc(-c4cnc([C@@H]5C[Si](C)(C)CN5C(=O)[C@@H](NC(=O)OC)C(C)(C)OC)[nH]4)cc3)cc2)[nH]1)C(C)(C)OC [Compound 35] | 0.09 | > 1000 | > 1000 | –
COC(=O)N[C@@H](CC(C)(C)C)C(=O)N1CCC[C@H]1c1ncc(-c2ccc(-c3ccc(-c4cnc([C@@H]5C[Si](C)(C)CN5C(=O)[C@H](CC(C)(C)C)NC(=O)OC)[nH]4)cc3)cc2)[nH]1 [Compound 36] | 0.03 | 617 | 434 | –
COC(=O)N[C@H](C(=O)N1CCC[C@H]1c1ncc(-c2ccc(-c3ccc(-c4cnc([C@@H]5C[Si](C)(C)CN5C(=O)[C@@H](NC(=O)OC)C5CCOCC5)[nH]4)cc3)cc2)[nH]1)C1CCOCC1 [Compound 33] | 0.09 | 43 | 7.6 | –
COC(=O)NC1(C(=O)N2CCC[C@H]2c2ncc(-c3ccc(-c4ccc(-c5cnc([C@@H]6C[Si](C)(C)CN6C(=O)C6(NC(=O)OC)CCC6)[nH]5)cc4)cc3)[nH]2)CCC1 [Compound 31] | 2.2 | > 1000 | > 1000 | –
COC(=O)N[C@H](C(=O)N1CCC[C@H]1c1ncc(-c2ccc(-c3ccc(-c4cnc([C@@H]5C[Si](C)(C)CN5C(=O)[C@@H](NC(=O)OC)[C@H](O)C(C)C)[nH]4)cc3)cc2)[nH]1)[C@H](O)C(C)C [Compound 39] | 0.03 | > 1000 | 510 | –
COC(=O)N[C@@H](CSC)C(=O)N1CCC[C@H]1c1ncc(-c2ccc(-c3ccc(-c4cnc([C@@H]5C[Si](C)(C)CN5C(=O)[C@H](CSC)NC(=O)OC)[nH]4)cc3)cc2)[nH]1 [Compound 32] | 0.03 | > 1000 | 144 | –
CC(C)(C)OC(=O)N1C[Si](C)(C)C[C@H]1c1ncc(-c2ccc(-c3ccc(-c4[nH]c([C@@H]5C[C@H]6C[C@H]6N5C(=O)OC(C)(C)C)nc4F)cc3)cc2)[nH]1 [Compound 42] | – | > 1000 | > 1000 | > 1
COC(=O)N[C@H](C(=O)N1C[Si](C)(C)C[C@H]1c1nc(Cl)c(-c2ccc(-c3ccc(-c4[nH]c([C@@H]5C[C@H]6C[C@H]6N5C(=O)[C@@H](NC(=O)OC)C5CCOCC5)nc4Cl)cc3)cc2)[nH]1)C1CCOCC1 [Compound 54] | – | 2.5 | 0.48 | 0.023
COC(=O)N[C@H](C(=O)N1C[Si](C)(C)C[C@H]1c1ncc(-c2ccc(-c3ccc(-c4[nH]c([C@@H]5CCCN5C(=O)[C@@H](NC(=O)OC)C5CCOCC5)nc4C4CC4)cc3)cc2)[nH]1)C1CCOCC1 [Compound 66] | – | 88 | 1.6 | 0.07
COC(=O)N[C@H](C(=O)N1C[Si](C)(C)C[C@H]1c1ncc(-c2ccc(-c3ccc(-c4cnc([C@@H]5C[C@H]6C[C@H]6N5C(=O)[C@@H](NC(=O)OC)C5CCOCC5)[nH]4)cc3)cc2)[nH]1)C1CCOCC1 [Compound 48] | – | 144 | 9 | 0.18
CC(C)(C)OC(=O)N1C[Si](C)(C)C[C@H]1c1nc(Cl)c(-c2ccc(-c3ccc(-c4[nH]c([C@@H]5C[C@H]6C[C@H]6N5C(=O)OC(C)(C)C)nc4Cl)cc3)cc2)[nH]1 [Compound 49] | – | > 1000 | > 1000 | > 1000
